Test results published in ChEMBL document CHEMBL4196213, “Design and Synthesis of Novel Amino-triazine Analogues as Selective Bruton's Tyrosine Kinase Inhibitors for Treatment of Rheumatoid Arthritis” (J Med Chem, 2018).
In brackets after ≈: the same amount, converted by molar mass.

Tests used:
[1] = Kinetic solubility of the compound incubated for 1 hr by LC-UV or LC-MS/MS analysis; format: physicochemical; conditions: read-out: Kinetic_solubility
[2] = Apparent permeability in human Caco2 cells; format: ADME, cell-based; conditions: Caco-2
[3] = Oral bioavailability in dog at 2 mg/kg, iv; format: ADME, organism-based, Canis lupus familiaris; conditions: in vivo
[4] = AUC (0 to infinity) in dog at 2 mg/kg, po; format: ADME, organism-based, Canis lupus familiaris; set-up: dose 2 mg/kg, time infinity, route oral; conditions: in vivo
[5] = Tmax in dog at 2 mg/kg, po; format: ADME, organism-based, Canis lupus familiaris; conditions: in vivo
[6] = Cmax in dog at 2 mg/kg, po; format: ADME, organism-based, Canis lupus familiaris; set-up: dose 2 mg/kg, route oral; conditions: in vivo
[7] = AUC (0 to t) in dog at 1 mg/kg, iv; format: ADME, organism-based, Canis lupus familiaris; conditions: in vivo
[8] = Volume of distribution in dog at 1 mg/kg, iv; format: ADME, organism-based, Canis lupus familiaris; conditions: in vivo
[9] = MRT (0 to infinity) in dog at 1 mg/kg, iv; format: ADME, organism-based, Canis lupus familiaris; conditions: in vivo
[10] = AUC (0 to t) in dog at 2 mg/kg, po; format: ADME, organism-based, Canis lupus familiaris; conditions: in vivo
[11] = Cmax in dog at 1 mg/kg, iv; format: ADME, organism-based, Canis lupus familiaris; set-up: dose 1 mg/kg, route intravenous; conditions: in vivo
[12] = AUC (0 to infinity) in dog at 1 mg/kg, iv; format: ADME, organism-based, Canis lupus familiaris; set-up: dose 1 mg/kg, time infinity, route intravenous; conditions: in vivo
[13] = AUC (0 to t) in mouse at 2 mg/kg, iv; format: ADME, organism-based; conditions: in vivo
[14] = MRT (0 to infinity) in rat at 1 mg/kg, iv; format: ADME, organism-based; conditions: in vivo
[15] = AUC (0 to t) in mouse at 10 mg/kg, po; format: ADME, organism-based; conditions: in vivo
[16] = AUC (0 to t) in rat at 1 mg/kg, iv; format: ADME, organism-based; conditions: in vivo
[17] = MRT (0 to infinity) in rat at 10 mg/kg, po; format: ADME, organism-based; conditions: in vivo
[18] = Oral bioavailability in rat at 10 mg/kg; format: ADME, organism-based; conditions: in vivo
[19] = Tmax in rat at 10 mg/kg, po; format: ADME, organism-based; conditions: in vivo
[20] = AUC (0 to t) in rat at 10 mg/kg, po; format: ADME, organism-based; conditions: in vivo
[21] = AUC (0 to infinity) in mouse at 2 mg/kg, iv; format: ADME, organism-based; set-up: dose 2 mg/kg, time infinity, route intravenous; conditions: in vivo
[22] = Volume of distribution in mouse at 2 mg/kg, iv; format: ADME, organism-based; conditions: in vivo
[23] = Oral bioavailability in mouse at 10 mg/kg; format: ADME, organism-based; conditions: in vivo
[24] = AUC (0 to infinity) in mouse at 10 mg/kg, po; format: ADME, organism-based; set-up: dose 10 mg/kg, time infinity, route oral; conditions: in vivo
[25] = Cmax in rat at 1 mg/kg, iv; format: ADME, organism-based; set-up: dose 1 mg/kg, route intravenous; conditions: in vivo
[26] = Cmax in rat at 10 mg/kg, po; format: ADME, organism-based; set-up: dose 10 mg/kg, route oral; conditions: in vivo
[27] = Volume of distribution in rat at 1 mg/kg, iv; format: ADME, organism-based; conditions: in vivo
[28] = MRT (0 to infinity) in mouse at 2 mg/kg, iv; format: ADME, organism-based; conditions: in vivo
[29] = Cmax in mouse at 2 mg/kg, iv; format: ADME, organism-based; set-up: dose 2 mg/kg, route intravenous; conditions: in vivo
[30] = Tmax in mouse at 10 mg/kg, po; format: ADME, organism-based; conditions: in vivo
[31] = MRT (0 to infinity) in mouse at 10 mg/kg, po; format: ADME, organism-based; conditions: in vivo
[32] = AUC (0 to infinity) in rat at 10 mg/kg, po; format: ADME, organism-based; set-up: dose 10 mg/kg, route oral, time infinity; conditions: in vivo

For `CC(C)n1cc(Nc2nc(N)nc(-c3cccc(-n4ccc5cc(C6CC6)cc(F)c5c4=O)c3CO)n2)cc1C#N`, the solubility kinetic at 1 h [1] was 4.8 µM (≈ 2.64 µg/mL).

With `CC(C1CC1)n1cc(Nc2nc(N)nc(-c3cccc(-n4ccc5cc(C6CC6)cc(F)c5c4=O)c3CO)n2)cn1` (configuration not stated) the solubility kinetic at 1 h [1] was 2 µM (≈ 1.11 µg/mL).

Work on `Nc1nc(Nc2cnn(C3CC3)c2)nc(-c2cccc(-n3ccc4cc(C5CC5)cc(F)c4c3=O)c2CO)n1` yielded a solubility kinetic at 1 h [1] of 4.7 µM (≈ 2.47 µg/mL).

For `CC(C)(C)c1ccc(C(=O)Nc2cccc(-c3nc(N)nc(Nc4ccc(N5CCOCC5)cc4)n3)c2CO)cc1`, the Papp [2] was 16.3 ×10⁻⁶ cm/s.

With `Nc1nc(Nc2ccc(N3CCOCC3)cc2)nc(-c2cccc(-n3ccc4cc(C5CC5)cc(F)c4c3=O)c2CO)n1` the solubility kinetic at 1 h [1] was 1.2 µM (≈ 0.696 µg/mL).

Compound `N#Cc1cc(Nc2nc(N)nc(-c3cccc(-n4ccc5cc(C6CC6)cc(F)c5c4=O)c3CO)n2)cn1C1CC1` has a solubility kinetic at 1 h [1] of 4 µM (≈ 2.19 µg/mL).

Compound `Cn1cc(Nc2nc(N)nc(-c3cccc(-n4ccc5cc(C6CC6)cc(F)c5c4=O)c3CO)n2)cc1C#N` has a solubility kinetic at 1 h [1] of 0.67 µM (≈ 0.35 µg/mL).

Compound `Cn1cc(Nc2nc(N)nc(-c3cccc(-n4ccc5cc(C6CC6)cc(F)c5c4=O)c3CO)n2)cn1.O=S(=O)(O)O` has a bioavailability [3] of 43.7%, an AUC(0-inf) [4] of 10000 ng·h/mL and a Tmax [5] of 2 h. The Cmax [6] was 2090 ng/mL, the AUC(0-t) [7] was 11300 ng·h/mL and the Vd [8] was 0.29 L/kg. For the same compound, the MRT inf [9] was 3.31 h, the AUC(0-t) [10] was 9850 ng·h/mL and the Cmax [11] was 4960 ng/mL. For the same compound, the AUC(0-inf) [12] was 11500 ng·h/mL.

With `CC(C)(C)c1ccc(C(=O)Nc2cccc(-c3nc(N)nc(Nc4ccc(C(=O)N5CCOCC5)cc4)n3)c2CO)cc1` the Papp [2] was 7.4 ×10⁻⁶ cm/s.

For `Nc1nc(Nc2cn[nH]c2)nc(-c2cccc(-n3ccc4cc(C5CC5)cc(F)c4c3=O)c2CO)n1`, the solubility kinetic at 1 h [1] was 12 µM (≈ 5.81 µg/mL).

`Cn1cc(Nc2nc(N)nc(-c3cccc(-n4ccc5cc(C6CC6)cc(F)c5c4=O)c3CO)n2)cn1` [SOFNOBRUTINIB] showed an AUC(0-t) [13] of 3110 ng·h/mL, an MRT inf [14] of 1.79 h and an AUC(0-t) [15] of 10200 ng·h/mL. It also gave an AUC(0-t) [16] of 1920 ng·h/mL, an MRT inf [17] of 4.88 h and a bioavailability [18] of 44.4%. For the same compound, the Tmax [19] was 2 h, the AUC(0-t) [20] was 8700 ng·h/mL and the AUC(0-inf) [21] was 3110 ng·h/mL. For the same compound, the Vd [22] was 3.03 L/kg, the bioavailability [23] was 65.8% and the solubility kinetic at 1 h [1] was 20 µM (≈ 9.97 µg/mL). For the same compound, the AUC(0-inf) [24] was 10200 ng·h/mL, the Cmax [25] was 1380 ng/mL and the Cmax [26] was 1480 ng/mL. The Vd [27] was 1.1 L/kg, the MRT inf [28] was 1.3 h and the Cmax [29] was 2890 ng/mL. It also gave a Tmax [30] of 0.5 h, an MRT inf [31] of 1.56 h and an AUC(0-inf) [32] of 8710 ng·h/mL.

Compound `CCn1cc(Nc2nc(N)nc(-c3cccc(-n4ccc5cc(C6CC6)cc(F)c5c4=O)c3CO)n2)cc1C#N` has a solubility kinetic at 1 h [1] of 0.71 µM (≈ 0.381 µg/mL).

Compound `COCCOCCn1cc(Nc2nc(N)nc(-c3cccc(-n4ccc5cc(C6CC6)cc(F)c5c4=O)c3CO)n2)cc1C#N` has a solubility kinetic at 1 h [1] of 9.5 µM (≈ 5.8 µg/mL).
